Experimental data as given in patent US10344060B2 (priority 2013, dated 2019).
Where two headings read alike, the source gives them in different places.

Legend:
hNav1.7 [1] = molecular target: T1, hNav1.7 (Homo sapiens, UniProt Q15858); test: cell-based; format: cell-based; conditions: read-out: PX hNav1.7 Tonic IC50
hNav1.5 [2] = molecular target: T2, hNav1.5 (Homo sapiens, UniProt Q14524); test: cell-based; conditions: Table 12; ratio of PX tonic IC50 values
hNav1.4 [3] = molecular target: T3, hNav1.4 (Homo sapiens, UniProt P35499); test: cell-based; format: cell-based; conditions: Table 12; for Nav1.4/Nav1.7: ratio of PX tonic IC50 values
hNav1.6 = hNav1.6 (Homo sapiens, UniProt Q9UQD0); test: cell-based; format: cell-based; conditions: for Nav1.6/Nav1.7 / IC50: Table 15; for Nav1.6/Nav1.7: ratio of PX tonic IC50 values; for IC50: read-out: PX hNav1.6 Tonic IC50
hNav1.7 [4] = molecular target: T1, hNav1.7; test: cell-based; format: cell-based; conditions: for block of hNav1.7 current: 100 nM
hNav1.8 [5] = molecular target: hNav1.8 (Homo sapiens, UniProt Q9Y5Y9); test: cell-based; format: cell-based
hNav1.8 [6] = test: cell-based; format: cell-based, human; conditions: partially inactivated, hNav1.8 / hNav1.7
hNav1.5 [7] = molecular target: T2, hNav1.5; test: cell-based; format: cell-based
hNav1.4 [8] = molecular target: T3, hNav1.4; test: cell-based; format: cell-based
hNav1.3 = hNav1.3 (Homo sapiens, UniProt Q9NY46); test: cell-based; format: cell-based
human Nav1.1 = human Nav1.1 (Homo sapiens, UniProt P35498); test: cell-based; format: cell-based
human Nav1.2 = human Nav1.2 (Homo sapiens, UniProt Q99250); test: cell-based; format: cell-based
human Nav1.6 = human Nav1.6 (Homo sapiens, UniProt Q9UQD0); test: cell-based; format: cell-based
[9] = test system: TTX-sensitive Nav channels in mouse DRG neuron; conditions: for 1.x/1.7: partially inactivated, mTTX-S / hNav1.7
[10] = test system: TTX-sensitive Nav channels in Sprague Dawley rat DRG neuron
in vivo [11] = conditions: male, CD-1, mouse, sc
male CD-1 mice = conditions: mouse, in vivo
[12] = for mean Cmax over the rat DRG Nav1.7: Sprague-Dawley rats
in vivo [13] = conditions: female, Sprague-Dawley, rat, sc

T3 sequence (P35499 whole entry): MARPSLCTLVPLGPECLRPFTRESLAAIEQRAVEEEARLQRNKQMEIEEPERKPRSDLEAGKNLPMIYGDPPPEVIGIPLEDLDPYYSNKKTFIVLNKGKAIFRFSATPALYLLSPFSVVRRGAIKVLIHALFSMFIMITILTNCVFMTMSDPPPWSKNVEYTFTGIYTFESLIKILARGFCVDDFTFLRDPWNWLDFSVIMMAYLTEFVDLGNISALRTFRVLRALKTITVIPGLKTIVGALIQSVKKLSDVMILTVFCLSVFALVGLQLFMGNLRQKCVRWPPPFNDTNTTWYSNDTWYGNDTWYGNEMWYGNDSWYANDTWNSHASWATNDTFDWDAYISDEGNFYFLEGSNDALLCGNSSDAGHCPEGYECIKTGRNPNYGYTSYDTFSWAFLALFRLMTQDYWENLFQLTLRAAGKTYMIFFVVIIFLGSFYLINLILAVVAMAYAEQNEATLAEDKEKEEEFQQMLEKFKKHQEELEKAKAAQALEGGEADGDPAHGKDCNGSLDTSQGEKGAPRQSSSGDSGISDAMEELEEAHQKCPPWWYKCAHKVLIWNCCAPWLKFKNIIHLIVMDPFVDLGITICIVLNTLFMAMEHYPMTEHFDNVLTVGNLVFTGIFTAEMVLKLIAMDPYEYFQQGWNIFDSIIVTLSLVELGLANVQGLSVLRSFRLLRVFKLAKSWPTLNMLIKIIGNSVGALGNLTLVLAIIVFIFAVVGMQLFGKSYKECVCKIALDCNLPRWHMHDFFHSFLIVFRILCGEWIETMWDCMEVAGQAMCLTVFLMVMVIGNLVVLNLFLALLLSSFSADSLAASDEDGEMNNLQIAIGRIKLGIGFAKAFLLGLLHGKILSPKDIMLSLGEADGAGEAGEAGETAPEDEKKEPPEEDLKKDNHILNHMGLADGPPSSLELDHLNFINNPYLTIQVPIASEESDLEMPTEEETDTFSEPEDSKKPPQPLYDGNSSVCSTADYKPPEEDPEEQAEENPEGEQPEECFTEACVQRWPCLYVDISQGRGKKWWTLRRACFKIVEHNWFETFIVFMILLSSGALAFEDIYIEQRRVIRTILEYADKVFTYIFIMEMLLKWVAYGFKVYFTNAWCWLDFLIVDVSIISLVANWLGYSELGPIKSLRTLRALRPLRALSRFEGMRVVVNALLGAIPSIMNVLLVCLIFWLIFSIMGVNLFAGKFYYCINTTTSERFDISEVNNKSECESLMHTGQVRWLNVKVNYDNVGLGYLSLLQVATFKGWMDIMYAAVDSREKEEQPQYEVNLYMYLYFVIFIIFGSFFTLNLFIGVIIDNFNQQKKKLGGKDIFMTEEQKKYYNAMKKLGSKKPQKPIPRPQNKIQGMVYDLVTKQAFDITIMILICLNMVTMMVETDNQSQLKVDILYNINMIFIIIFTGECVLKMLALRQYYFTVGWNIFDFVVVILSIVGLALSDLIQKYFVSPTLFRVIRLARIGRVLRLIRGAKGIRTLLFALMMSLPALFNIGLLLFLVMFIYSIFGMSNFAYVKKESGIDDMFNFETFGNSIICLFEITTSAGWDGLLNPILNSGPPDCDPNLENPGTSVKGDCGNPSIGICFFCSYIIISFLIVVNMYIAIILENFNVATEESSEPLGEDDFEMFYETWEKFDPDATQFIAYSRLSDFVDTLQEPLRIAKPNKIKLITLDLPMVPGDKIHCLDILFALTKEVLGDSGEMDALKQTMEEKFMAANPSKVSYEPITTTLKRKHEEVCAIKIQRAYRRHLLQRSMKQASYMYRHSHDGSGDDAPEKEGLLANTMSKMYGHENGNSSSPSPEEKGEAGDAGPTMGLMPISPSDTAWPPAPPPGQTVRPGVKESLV
T2 sequence (Q14524 whole entry): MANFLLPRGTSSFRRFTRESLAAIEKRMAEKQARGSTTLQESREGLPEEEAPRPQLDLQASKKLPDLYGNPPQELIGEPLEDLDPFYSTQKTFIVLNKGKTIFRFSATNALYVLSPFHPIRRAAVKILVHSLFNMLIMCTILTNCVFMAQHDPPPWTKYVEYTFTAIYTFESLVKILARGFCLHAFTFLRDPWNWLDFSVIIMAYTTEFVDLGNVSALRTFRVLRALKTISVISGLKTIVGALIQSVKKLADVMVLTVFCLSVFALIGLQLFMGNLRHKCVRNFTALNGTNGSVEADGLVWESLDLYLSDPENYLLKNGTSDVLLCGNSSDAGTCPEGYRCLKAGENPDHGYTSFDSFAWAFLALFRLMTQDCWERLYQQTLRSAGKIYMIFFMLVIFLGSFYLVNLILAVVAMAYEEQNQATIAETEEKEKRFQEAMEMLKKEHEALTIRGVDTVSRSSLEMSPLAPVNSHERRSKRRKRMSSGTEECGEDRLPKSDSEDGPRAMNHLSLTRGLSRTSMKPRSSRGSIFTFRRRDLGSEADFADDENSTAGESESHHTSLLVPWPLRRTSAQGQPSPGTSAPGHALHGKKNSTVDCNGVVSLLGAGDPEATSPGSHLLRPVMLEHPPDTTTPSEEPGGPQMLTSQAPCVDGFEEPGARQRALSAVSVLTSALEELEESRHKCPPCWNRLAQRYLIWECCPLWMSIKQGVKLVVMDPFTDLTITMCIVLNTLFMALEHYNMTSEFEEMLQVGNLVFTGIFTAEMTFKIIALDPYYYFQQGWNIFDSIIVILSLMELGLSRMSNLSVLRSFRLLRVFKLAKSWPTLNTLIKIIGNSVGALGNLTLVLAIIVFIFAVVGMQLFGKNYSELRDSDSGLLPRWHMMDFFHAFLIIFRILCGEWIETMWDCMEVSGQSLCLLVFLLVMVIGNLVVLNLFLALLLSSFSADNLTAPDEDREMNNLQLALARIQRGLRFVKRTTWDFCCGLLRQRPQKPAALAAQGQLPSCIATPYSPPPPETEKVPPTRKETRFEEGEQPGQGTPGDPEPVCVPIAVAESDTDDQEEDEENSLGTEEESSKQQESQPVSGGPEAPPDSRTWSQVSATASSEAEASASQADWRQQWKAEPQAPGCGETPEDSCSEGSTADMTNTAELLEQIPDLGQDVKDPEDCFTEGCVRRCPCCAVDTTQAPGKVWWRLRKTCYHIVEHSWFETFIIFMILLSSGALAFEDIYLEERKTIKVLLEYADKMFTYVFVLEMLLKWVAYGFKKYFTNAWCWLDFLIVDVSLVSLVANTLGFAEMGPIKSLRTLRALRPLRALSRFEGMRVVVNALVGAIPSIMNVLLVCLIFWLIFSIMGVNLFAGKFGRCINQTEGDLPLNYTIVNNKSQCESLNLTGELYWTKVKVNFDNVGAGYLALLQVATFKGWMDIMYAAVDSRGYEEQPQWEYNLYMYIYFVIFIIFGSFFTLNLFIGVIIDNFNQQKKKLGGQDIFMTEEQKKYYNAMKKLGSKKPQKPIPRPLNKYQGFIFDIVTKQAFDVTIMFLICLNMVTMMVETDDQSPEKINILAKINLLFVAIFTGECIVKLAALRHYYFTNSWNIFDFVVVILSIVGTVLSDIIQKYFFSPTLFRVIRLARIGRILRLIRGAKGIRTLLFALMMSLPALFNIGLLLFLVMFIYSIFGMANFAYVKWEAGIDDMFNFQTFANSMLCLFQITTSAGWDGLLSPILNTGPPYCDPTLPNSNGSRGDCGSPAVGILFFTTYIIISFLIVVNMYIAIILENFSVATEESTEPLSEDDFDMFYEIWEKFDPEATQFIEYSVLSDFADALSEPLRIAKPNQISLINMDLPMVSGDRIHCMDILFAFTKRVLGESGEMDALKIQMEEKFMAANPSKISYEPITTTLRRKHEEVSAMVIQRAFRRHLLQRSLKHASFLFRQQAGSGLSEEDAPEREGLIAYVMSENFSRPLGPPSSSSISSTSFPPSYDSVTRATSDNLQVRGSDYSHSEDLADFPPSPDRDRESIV

`C#CC[C@H](N)C(=O)N[C@@H](Cc1ccc(O)cc1)C(=O)N[C@H]1CSSC[C@@H]2NC(=O)[C@@H]3CSSC[C@@H](C(=O)N[C@@H](CCCNC(=N)N)C(=O)N[C@@H](CCCCN)C(=O)N[C@@H](CCC(=O)O)C(=O)N[C@H](C(N)=O)[C@@H](C)CC)NC(=O)[C@H](Cc4c[nH]c5ccccc45)NC(=O)[C@H](CC(C)C)NC(=O)[C@H](CCCCN)NC(=O)[C@H](CSSC[C@H](NC(=O)[C@H]([C@@H](C)O)NC(=O)[C@H](Cc4c[nH]c5ccccc45)NC(=O)[C@H](CCCC)NC(=O)[C@H](Cc4c[nH]c5ccccc45)NC(=O)[C@H](CCCCN)NC(=O)[C@H](CCC(N)=O)NC1=O)C(=O)N[C@@H](CC(=O)O)C(=O)N[C@@H](CO)C(=O)N[C@@H](CCCCN)C(=O)N[C@@H](CCCNC(=N)N)C(=O)N[C@@H](C)C(=O)N3)NC(=O)[C@H](CCCNC(=N)N)NC(=O)[C@H](CC(C)C)NC(=O)CNC(=O)[C@H](CCC(=O)O)NC2=O` [compound 328] gave an IC50 (hNav1.7 [1]; Table 15) of 0.548 nM, a Nav1.5/Nav1.7 (hNav1.5 [2]) of 5854 and a Nav1.4/Nav1.7 (hNav1.4 [3]) of 253. The “selectivity for Nav1.7 over Nav1.6” value (hNav1.6; PatchXpress) was 334 fold, the Nav1.6/Nav1.7 (hNav1.6) was 334 and the IC50 (hNav1.6) was 183 nM. For the same compound, the “block of hNav1.7 current” value (hNav1.7 [4]) was “approximately 95%”, the “potency against hNav1.7, in words” value (hNav1.7 [4]; manual WCPC) was “sub-nanomolar potency” and the “selectivity for hNav1.7 against other human VGSCs” value (hNav1.7 [4]; manual WCPC, hNav1.1-hNav1.8) was over 30 fold. For the same compound, the IC50 (hNav1.7 [4]; read-out: IC50 of hNav1.7 inhibition) was 0.62 nM, the IC50 (hNav1.8 [5]) was over 1000 nM and the “block of TTX-resistant hNav1.8 current” value (hNav1.8 [5]; 1000 nM) was “approximately 30%”. For the same compound, the IC50 (hNav1.8 [5]; WCPC, partially inactivated, hNav1.8, n=2, read-out: Mean IC50) was over 1000 nM, the 1.x/1.7 (hNav1.8 [6]) was over 1613 and the “block of hNav1.5 current” value (hNav1.5 [7]; 1000 nM, held at −77 mV) was “less than 10%”. For the same compound, the IC50 (hNav1.5 [7]; WCPC, partially inactivated, hNav1.5, n=2, read-out: Mean IC50) was over 1000 nM, the IC50 (hNav1.5 [7]; manual WCPC, ~20% inactivation, read-out: IC50 of hNav1.5 inhibition) was over 1000 nM and the 1.x/1.7 (hNav1.5 [7]; partially inactivated, hNav1.5 / hNav1.7) was over 1613. The “block of hNav1.4 current” value (hNav1.4 [8]; 1000 nM, held at −78 mV) was “approximately 90%”, the IC50 (hNav1.4 [8]; manual WCPC, partially inactivated state, read-out: IC50 of hNav1.4 inhibition) was 74.6 nM and the 1.x/1.7 (hNav1.4 [8]; partially inactivated, hNav1.4 / hNav1.7) was 120. For the same compound, the “block of hNav1.3 current” value (hNav1.3; 1000 nM, held at −68 mV) was “approximately 90%”, the IC50 (hNav1.3; manual WCPC, ~20% inactivation, read-out: IC50 of hNav1.3 inhibition) was 52.5 nM and the 1.x/1.7 (hNav1.3; partially inactivated, hNav1.3 / hNav1.7) was 85. The “block of hNav1.1 current” value (human Nav1.1; 1000 nM, held at −70 mV) was “approximately 95%”, the IC50 (human Nav1.1; manual patch clamp, ~20% inactivation, read-out: IC50 hNav1.1) was 27.2 nM and the 1.x/1.7 (human Nav1.1; partially inactivated, hNav1.1 / hNav1.7) was 44. For the same compound, the “block of hNav1.2 current, in words” value (human Nav1.2; 1000 nM, held at −65 mV) was “blocks the majority of Nav current”, the IC50 (human Nav1.2; manual patch clamp, ~20% inactivation, read-out: IC50 hNav1.2) was 44.4 nM and the 1.x/1.7 (human Nav1.2; partially inactivated, hNav1.2 / hNav1.7) was 72. For the same compound, the “block of hNav1.6 current, in words” value (human Nav1.6; 1000 nM, held at −67 mV) was “blocks the majority of Nav current”, the IC50 (human Nav1.6; manual patch clamp, ~20% inactivation, read-out: IC50 hNav1.6) was 19.4 nM and the 1.x/1.7 (human Nav1.6; partially inactivated, hNav1.6 / hNav1.7) was 31. The IC50 [9] was 11.2 nM, the “block of TTX-sensitive Nav current” value ([9]; 300 nM, C57 Black 6 mouse DRG neuron) was “approximately 90%” and the 1.x/1.7 [9] was 18. For the same compound, the IC50 [10] was 30.7 nM, the “block of TTX-sensitive Nav current” value ([10]; 300 nM, Sprague Dawley rat DRG neuron held at −78 mV) was “approximately 85%” and the 1.x/1.7 ([10]; partially inactivated, rTTX-S / hNav1.7) was 50. The “mean Cmax over the mouse DRG Nav1.7 IC50” value (male CD-1 mice, 5 mg/kg s.c.) was 196 fold, the Cmax (in vivo [11]; 5 mg/kg) was 2200 nM and the half-life (in vivo [11]; 5 mg/kg) was about 4.5 h.
Compound `C#CC[C@H](N)C(=O)N[C@@H](Cc1ccc(O)cc1)C(=O)N[C@H]1CSSC[C@@H]2NC(=O)[C@@H]3CSSC[C@@H](C(=O)N[C@@H](CCCNC(=N)N)C(=O)N[C@@H](CCCCN)C(=O)N[C@@H](CCC(=O)O)C(=O)N[C@H](C(N)=O)[C@@H](C)CC)NC(=O)[C@H](Cc4c[nH]c5ccc(Br)cc45)NC(=O)[C@H](CC(C)C)NC(=O)[C@H](CCCCN)NC(=O)[C@H](CSSC[C@H](NC(=O)[C@H]([C@@H](C)O)NC(=O)[C@H](Cc4c[nH]c5ccccc45)NC(=O)[C@H](CCCC)NC(=O)[C@H](Cc4c[nH]c5ccccc45)NC(=O)[C@H](CCCCN)NC(=O)[C@H](CCC(N)=O)NC1=O)C(=O)N[C@@H](CC(=O)O)C(=O)N[C@@H](CO)C(=O)N[C@@H](CCCCN)C(=O)N[C@@H](CCCNC(=N)N)C(=O)N[C@@H](C)C(=O)N3)NC(=O)[C@H](CCCNC(=N)N)NC(=O)[C@H](CC(C)C)NC(=O)CNC(=O)[C@H](CCC(=O)O)NC2=O` [compound 858] has an IC50 (hNav1.7 [1]; Table 12, PatchXpress, tonic block) of 0.039 nM, an IC50 (hNav1.7 [1]; Table 15) of 0.059 nM and an IC50 (hNav1.4 [3]; PatchXpress, tonic block, read-out: PX hNav1.4 Tonic IC50) of 40.4 nM. For the same compound, the Nav1.4/Nav1.7 (hNav1.4 [3]) was 1036, the Nav1.6/Nav1.7 (hNav1.6) was 829 and the IC50 (hNav1.6) was 49.2 nM. The “block of hNav1.7 current” value (hNav1.7 [4]) was “approximately 90%”, the IC50 (hNav1.7 [4]; WCPC, partially inactivated, hNav1.7, n=2, read-out: Mean IC50) was 0.13 nM and the “potency against hNav1.7, in words” value (hNav1.7 [4]; manual WCPC) was “sub-nanomolar potent inhibitor”. The IC50 [9] was 3.8 nM, the “block of TTX-sensitive Nav current, in words” value ([9]; 30 nM, C57 Black 6 mouse DRG neuron) was “blocks most of TTX-sensitive Nav current” and the “potency on TTX-S current in mDRG neurons, in words” value ([9]; manual patch clamp) was “single digit-nanomolar inhibitor”. The 1.x/1.7 [9] was 29.
With `Cc1cccc(C)c1OCC(C)N` (centres unmarked) [mexilitine, reference compound] the “reversal of thermal hyperalgesia, positive control” value (male CD-1 mice) was “sufficient to significantly reverse thermal hyperalgesia”.
`C#CC[C@@H]1NC(=O)[C@@H]2CSSC[C@H](NC(=O)[C@H](Cc3ccc(O)cc3)NC(=O)[C@@H](N)CC#N)C(=O)N[C@@H](CCC(N)=O)C(=O)N[C@@H](CCCCN)C(=O)N[C@@H](Cc3c[nH]c4ccccc34)C(=O)N[C@@H](CCCC)C(=O)N[C@@H](Cc3c[nH]c4ccccc34)C(=O)N[C@@H]([C@@H](C)O)C(=O)N[C@H]3CSSC[C@H](NC(=O)[C@H](CCCNC(=N)N)NC(=O)[C@H](CC(C)C)NC(=O)CNC1=O)C(=O)N[C@@H](CCCCN)C(=O)N[C@@H](CC(C)C)C(=O)N[C@@H](Cc1c[nH]c4ccccc14)C(=O)N[C@H](C(=O)N[C@@H](CCCNC(=N)N)C(=O)N[C@@H](CCCCN)C(=O)N[C@@H](CCC(=O)O)C(=O)N[C@H](C(N)=O)[C@@H](C)CC)CSSC[C@H](NC(=O)[C@H](C)NC(=O)[C@H](CCCNC(=N)N)NC(=O)[C@H](CCCCN)NC(=O)[C@H](CO)NC(=O)[C@H](CC(=O)O)NC3=O)C(=O)N2` [CyA-[Nle6,Glu28]JzTx-V(1-29)] showed an IC50 [10] of 9.25 nM.
`C#CC[C@@H]1NC(=O)[C@@H]2CSSC[C@H](NC(=O)[C@H](Cc3ccc(O)cc3)NC(=O)[C@@H](N)CC#N)C(=O)N[C@@H](CCC(N)=O)C(=O)N[C@@H](CCCCN)C(=O)N[C@@H](Cc3c[nH]c4ccccc34)C(=O)N[C@@H](CCCC)C(=O)N[C@@H](Cc3c[nH]c4ccccc34)C(=O)N[C@@H]([C@@H](C)O)C(=O)N[C@H]3CSSC[C@H](NC(=O)[C@H](CCCNC(=N)N)NC(=O)[C@H](CC(C)C)NC(=O)CNC1=O)C(=O)N[C@@H](CCCCN)C(=O)N[C@@H](CC(C)C)C(=O)N[C@@H](Cc1c[nH]c4ccccc14)C(=O)N[C@H](C(=O)N[C@@H](CCCNC(=N)N)C(=O)N[C@@H](CCCCN)C(=O)N[C@@H](CCC(=O)O)C(=O)N[C@H](C(N)=O)[C@@H](C)CC)CSSC[C@H](NC(=O)[C@H](C)NC(=O)[C@H](CCCNC(=N)N)NC(=O)[C@H](CCCCN)NC(=O)[C@H](CO)NC(=O)[C@H](CC(=O)O)NC3=O)C(=O)N2` [compound 395] showed an IC50 (hNav1.7 [1]; Table 15) of 0.779 nM, a Nav1.5/Nav1.7 (hNav1.5 [2]) of 256 and a Nav1.6/Nav1.7 (hNav1.6) of 94. For the same compound, the IC50 (hNav1.6) was 73.2 nM, the IC50 [9] was 15.9 nM and the “potency relative to wild type peptide, in words” value ([9]; TTX-sensitive current in mouse DRG neurons) was “equipotent”. For the same compound, the IC50 [10] was 9.25 nM, the “mean Cmax over the mouse DRG Nav1.7 IC50” value (CD-1 male mouse, 2 mg/kg s.c.) was 46 fold and the “mean Cmax over the rat DRG Nav1.7” value ([12]; 1 mg/kg s.c.) was 56 fold. For the same compound, the “mean Cmax over the rat DRG Nav1.7” value ([12]; 3 mg/kg s.c.) was 306 fold, the “mean Cmax over the rat DRG Nav1.7” value ([12]; 10 mg/kg s.c.) was 684 fold and the tolerability ([12]; Sprague-Dawley rats, 1, 3 or 10 mg/kg single s.c. administration) was “All the doses were tolerated”. It also gave a Cmax (in vivo [11]; 2 mg/kg) of 730 nM, a half-life (in vivo [11]; 2 mg/kg) of about 2.3 h and a Cmax (in vivo [13]; 1 mg/kg) of 79 nM. The Tmax (in vivo [13]; 1 mg/kg) was 1 h, the Cmax (in vivo [13]; 3 mg/kg) was 430 nM and the Tmax (in vivo [13]; 3 mg/kg) was 3 h. It also gave a Cmax (in vivo [13]; 10 mg/kg) of 970 nM and a Tmax (in vivo [13]; 10 mg/kg) of 3 h.
